Tests used:
Assay in all cases: relative viability (nuclei count vs DMSO), 5 days (fraction); higher = more cells survive
[1] = test system: NCI-H1734
Summary of the method: (§1)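 Lung cancer cell lines were seeded in 1536-well plates and dosed by pin tool the next day, with either a single drug or a fixed anchor-drug dose combined with five library-drug doses (not always all listed) spaced in √10 steps. Five days later, one step fixed the cells and stained their nuclei (final 0.05% Triton X-100, 1% formaldehyde, 1 ug/ml Hoechst), and nuclei were counted on 4× images. Relative viability is the nuclei count in treated wells divided by the count in vehicle wells, and each value is the median of duplicate plates.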

[2] = test system: SW 1573
Summary of the method: as §1

[3] = test system: BEN
Summary of the method: as §1

[4] = test system: HCC-44
Summary of the method: as §1

[5] = test system: NCI-H358
Summary of the method: as §1

[6] = test system: NCI-H1915
Summary of the method: as §1

[7] = test system: NCI-H1755
Summary of the method: as §1

[8] = test system: NCI-H3122
Summary of the method: as §1

[9] = test system: NCI-H2170
Summary of the method: as §1

[10] = test system: LU99A
Summary of the method: as §1

[11] = test system: NCI-H650
Summary of the method: as §1

[12] = test system: NCI-H2126
Summary of the method: as §1

[13] = test system: NCI-H2023
Summary of the method: as §1

[14] = test system: HOP-62
Summary of the method: as §1

[15] = test system: EMC-BAC-2
Summary of the method: as §1

[16] = test system: LC-2-ad
Summary of the method: as §1

[17] = test system: NCI-H1395
Summary of the method: as §1

[18] = test system: NCI-H727
Summary of the method: as §1

[19] = test system: HCC-15
Summary of the method: as §1

[20] = test system: SW 900
Summary of the method: as §1

[21] = test system: NCI-H1437
Summary of the method: as §1

Work on Cc1cn(-c2cc(NC(=O)c3ccc(C)c(Nc4nccc(-c5cccnc5)n4)c3)cc(C(F)(F)F)c2)cn1 [Nilotinib] + O=C(c1cc(Cc2n[nH]c(=O)c3ccccc23)ccc1F)N1CCN(C(=O)C2CC2)CC1 [Olaparib] (partner 8 µM) yielded a relative viability ([1]; first compound 0.001 µM) of 0.576, a relative viability ([1]; first compound 0.003162 µM) of 0.656 and a relative viability ([1]; first compound 0.01 µM) of 0.689. For the same compound, the relative viability ([1]; first compound 0.03162 µM) was 0.543, the relative viability ([1]; first compound 0.1 µM) was 0.497 and the relative viability ([2]; first compound 0.001 µM) was 0.494. The relative viability ([2]; first compound 0.003162 µM) was 0.614, the relative viability ([2]; first compound 0.01 µM) was 0.662 and the relative viability ([2]; first compound 0.03162 µM) was 0.364. The relative viability ([2]; first compound 0.1 µM) was 0.423, the relative viability ([3]; first compound 0.001 µM) was 1.11 and the relative viability ([3]; first compound 0.003162 µM) was 1.1. It also gave a relative viability ([3]; first compound 0.01 µM) of 1.25, a relative viability ([3]; first compound 0.03162 µM) of 0.996 and a relative viability ([3]; first compound 0.1 µM) of 1. The relative viability ([4]; first compound 0.001 µM) was 0.895, the relative viability ([4]; first compound 0.003162 µM) was 0.97 and the relative viability ([4]; first compound 0.01 µM) was 0.976. For the same compound, the relative viability ([4]; first compound 0.1 µM) was 0.983, the relative viability ([5]; first compound 0.001 µM) was 0.546 and the relative viability ([5]; first compound 0.003162 µM) was 0.721. The relative viability ([5]; first compound 0.01 µM) was 0.813, the relative viability ([5]; first compound 0.03162 µM) was 0.52 and the relative viability ([5]; first compound 0.1 µM) was 0.539. The relative viability ([6]; first compound 0.003162 µM) was 0.267, the relative viability ([6]; first compound 0.01 µM) was 0.244 and the relative viability ([6]; first compound 0.03162 µM) was 0.255. For the same compound, the relative viability ([6]; first compound 0.1 µM) was 0.187, the relative viability ([7]; first compound 0.001 µM) was 0.839 and the relative viability ([7]; first compound 0.003162 µM) was 1.02. It also gave a relative viability ([7]; first compound 0.01 µM) of 0.953, a relative viability ([7]; first compound 0.03162 µM) of 0.901 and a relative viability ([7]; first compound 0.1 µM) of 0.784. The relative viability ([8]; first compound 0.001 µM) was 0.591, the relative viability ([8]; first compound 0.003162 µM) was 0.688 and the relative viability ([8]; first compound 0.01 µM) was 0.848. The relative viability ([8]; first compound 0.03162 µM) was 0.515, the relative viability ([8]; first compound 0.1 µM) was 0.721 and the relative viability ([9]; first compound 0.001 µM) was 0.597. It also gave a relative viability ([9]; first compound 0.003162 µM) of 0.662, a relative viability ([9]; first compound 0.01 µM) of 0.647 and a relative viability ([9]; first compound 0.03162 µM) of 0.574. The relative viability ([9]; first compound 0.1 µM) was 0.614, the relative viability ([10]; first compound 0.001 µM) was 0.2 and the relative viability ([10]; first compound 0.003162 µM) was 0.201. The relative viability ([10]; first compound 0.03162 µM) was 0.221, the relative viability ([10]; first compound 0.1 µM) was 0.164 and the relative viability ([11]; first compound 0.001 µM) was 0.357. For the same compound, the relative viability ([11]; first compound 0.003162 µM) was 0.432, the relative viability ([11]; first compound 0.01 µM) was 0.454 and the relative viability ([11]; first compound 0.03162 µM) was 0.36. It also gave a relative viability ([11]; first compound 0.1 µM) of 0.344, a relative viability ([12]; first compound 0.001 µM) of 0.902 and a relative viability ([12]; first compound 0.003162 µM) of 1.03. It also gave a relative viability ([12]; first compound 0.01 µM) of 1.11, a relative viability ([12]; first compound 0.03162 µM) of 0.876 and a relative viability ([12]; first compound 0.1 µM) of 0.83. The relative viability ([13]; first compound 0.001 µM) was 0.429, the relative viability ([13]; first compound 0.003162 µM) was 0.486 and the relative viability ([13]; first compound 0.01 µM) was 0.599. The relative viability ([13]; first compound 0.03162 µM) was 0.361, the relative viability ([13]; first compound 0.1 µM) was 0.394 and the relative viability ([14]; first compound 0.003162 µM) was 0.38. It also gave a relative viability ([14]; first compound 0.01 µM) of 0.393, a relative viability ([14]; first compound 0.03162 µM) of 0.403 and a relative viability ([14]; first compound 0.1 µM) of 0.352. The relative viability ([15]; first compound 0.001 µM) was 0.43, the relative viability ([15]; first compound 0.003162 µM) was 0.448 and the relative viability ([15]; first compound 0.01 µM) was 0.49. For the same compound, the relative viability ([15]; first compound 0.03162 µM) was 0.497, the relative viability ([15]; first compound 0.1 µM) was 0.521 and the relative viability ([16]; first compound 0.001 µM) was 0.686. For the same compound, the relative viability ([16]; first compound 0.003162 µM) was 0.755, the relative viability ([16]; first compound 0.01 µM) was 0.689 and the relative viability ([16]; first compound 0.03162 µM) was 0.874. For the same compound, the relative viability ([16]; first compound 0.1 µM) was 0.594, the relative viability ([17]; first compound 0.001 µM) was 0.472 and the relative viability ([17]; first compound 0.01 µM) was 0.473. The relative viability ([17]; first compound 0.03162 µM) was 0.493, the relative viability ([17]; first compound 0.1 µM) was 0.455 and the relative viability ([18]; first compound 0.001 µM) was 0.574. For the same compound, the relative viability ([18]; first compound 0.003162 µM) was 0.847, the relative viability ([18]; first compound 0.01 µM) was 0.658 and the relative viability ([18]; first compound 0.03162 µM) was 0.732. It also gave a relative viability ([18]; first compound 0.1 µM) of 0.732, a relative viability ([19]; first compound 0.001 µM) of 0.612 and a relative viability ([19]; first compound 0.003162 µM) of 0.778. For the same compound, the relative viability ([19]; first compound 0.01 µM) was 0.734, the relative viability ([19]; first compound 0.03162 µM) was 0.692 and the relative viability ([19]; first compound 0.1 µM) was 0.638. For the same compound, the relative viability ([20]; first compound 0.003162 µM) was 0.916, the relative viability ([20]; first compound 0.01 µM) was 0.965 and the relative viability ([20]; first compound 0.03162 µM) was 0.77. For the same compound, the relative viability ([20]; first compound 0.1 µM) was 0.776, the relative viability ([21]; first compound 0.001 µM) was 0.603 and the relative viability ([21]; first compound 0.003162 µM) was 0.687. For the same compound, the relative viability ([21]; first compound 0.01 µM) was 0.654, the relative viability ([21]; first compound 0.03162 µM) was 0.548 and the relative viability ([21]; first compound 0.1 µM) was 0.559.

Reference: the supplement of paper PMC10307832
